In ChEMBL document CHEMBL2021759, “Discovery of 4'-azido-2'-deoxy-2'-C-methyl cytidine and prodrugs thereof: a potent inhibitor of Hepatitis C virus replication” (Bioorg Med Chem Lett, 2012):

Columns and labels:
Hepatitis C virus = test: Antiviral activity against Hepatitis C virus infected in human HuH7-Rep cells assessed as inhibition of viral replication by luciferase reporter gene assay; assay type: functional, organism-based, Hepacivirus hominis; conditions: Huh-7
[1] = Cytotoxicity against human MT4 cells by LTR-luciferase reporter gene assay; assay type: cell-based
[2] = Cytotoxicity against human HuH7 cells by CMV-luciferase reporter gene assay; assay type: cell-based, Huh-7
Rattus norvegicus [3] = test: AUC (0 to infinity) in Sprague-Dawley rat assessed as 4'-azido-2'-deoxy-2'-methylcytidine level at 20 umol/kg, po; assay type: ADME, organism-based, Plasma; parameters: dose 20 umol/kg, route oral, time infinity; conditions: in vivo
Rattus norvegicus [4] = test: Cmax in Sprague-Dawley rat assessed as 4'-azido-2'-deoxy-2'-methylcytidine level at 20 umol/kg, po; assay type: ADME, organism-based; parameters: dose 20 umol/kg, route oral; conditions: in vivo
Rattus norvegicus [5] = test: Oral bioavailability in Sprague-Dawley rat assessed as 4'-azido-2'-deoxy-2'-methylcytidine level at 20 umol/kg; assay type: ADME, organism-based; conditions: in vivo
Rattus norvegicus [6] = test: Apparent oral clearance in Sprague-Dawley rat assessed as 4'-azido-2'-deoxy-2'-methylcytidine level at 20 umol/kg, po; assay type: ADME, organism-based; conditions: in vivo
Rattus norvegicus [7] = test: AUCt in Sprague-Dawley rat assessed as 4'-azido-2'-deoxy-2'-methylcytidine level at 20 umol/kg, po; assay type: ADME, organism-based, Plasma; conditions: in vivo
Rattus norvegicus [8] = test: Tmax in Sprague-Dawley rat assessed as 4'-azido-2'-deoxy-2'-methylcytidine level at 20 umol/kg, po; assay type: ADME, organism-based; conditions: in vivo
[9] = AUC (0 to infinity) in Sprague-Dawley rat at 20 umol/kg, po; assay type: ADME, organism-based; parameters: dose 20 umol/kg, time infinity, route oral; conditions: plasma
[10] = AUCt in Sprague-Dawley rat at 20 umol/kg, po; assay type: ADME, organism-based; conditions: plasma
[11] = Tmax in Sprague-Dawley rat at 20 umol/kg, po; assay type: ADME, organism-based; conditions: in vivo
[12] = AUC (0 to infinity) in Sprague-Dawley rat at 5 umol/kg, iv; assay type: ADME, organism-based; parameters: dose 5 umol/kg, route intravenous, time infinity; conditions: plasma
[13] = Apparent permeability across human Caco2 cells; assay type: ADME, cell-based; conditions: Caco-2
[14] = Intrinsic clearance in human liver microsomes; assay type: ADME, Microsome; conditions: read-out: CLH
[15] = Oral bioavailability in Sprague-Dawley rat at 20 umol/kg; assay type: ADME, organism-based; conditions: in vivo
[16] = Cmax in Sprague-Dawley rat at 20 umol/kg, po; assay type: ADME, organism-based; parameters: dose 20 umol/kg, route oral; conditions: in vivo
[17] = Intrinsic clearance in rat liver microsomes; assay type: ADME, Microsome; conditions: read-out: CLH
[18] = Apparent oral clearance in Sprague-Dawley rat at 20 umol/kg, po; assay type: ADME, organism-based; conditions: in vivo
[19] = AUCt in Sprague-Dawley rat at 5 umol/kg, iv; assay type: ADME, organism-based; conditions: plasma

SMILES | EC50 (Hepatitis C virus) | AUC (Rattus norvegicus [3]) | Cmax (Rattus norvegicus [4]) | F (Rattus norvegicus [5]) | CL/F (Rattus norvegicus [6]) | AUCt (Rattus norvegicus [7]) | Tmax (Rattus norvegicus [8]) | CC50 [1] | CC50 [2] | also measured
C[C@H]1[C@H](n2ccc(=O)[nH]c2=O)O[C@@](CO)(N=[N+]=[N-])[C@H]1O |  |  |  |  |  |  |  | > 100 µM | > 100 µM | IC50 (Hepatitis C virus): > 50 µM
CC(C)[C@H](N)C(=O)OC[C@@]1(N=[N+]=[N-])O[C@@H](n2ccc(N)nc2=O)[C@H](C)[C@@H]1O.O=C(O)C(F)(F)F | 0.79 µM | 1.68 µM·h | 500 nM | 8% | 200 mL/min/kg | 1.56 µM·h | 1 h |  | > 100 µM | 
CC(C)[C@H](N)C(=O)O[C@H]1[C@@H](C)[C@H](n2ccc(N)nc2=O)O[C@@]1(CO)N=[N+]=[N-].O=C(O)C(F)(F)F | 0.72 µM | 4.06 µM·h | 1140 nM | 20% | 82.2 mL/min/kg | 3.66 µM·h | 1 h |  | > 100 µM | 
C[C@H]1[C@H](n2ccc(N)nc2=O)O[C@@](COP(=O)(N[C@@H](C)C(=O)OCc2ccccc2)Oc2cccc3ccccc23)(N=[N+]=[N-])[C@H]1O (stereo partly drawn) | 3 µM |  |  |  |  |  |  | > 32 µM | > 100 µM | 

Now from value to molecule, other results behind:

EC50 (Hepatitis C virus) | AUC (Rattus norvegicus [3]) | Cmax (Rattus norvegicus [4]) | F (Rattus norvegicus [5]) | CL/F (Rattus norvegicus [6]) | AUCt (Rattus norvegicus [7]) | Tmax (Rattus norvegicus [8]) | SMILES | CC50 [1] | CC50 [2] | also measured
6.2 µM |  |  |  |  |  |  | C[C@H]1[C@H](n2ccc(=O)[nH]c2=O)O[C@@](COP(=O)(N[C@@H](C)C(=O)OCc2ccccc2)Oc2cccc3ccccc23)(N=[N+]=[N-])[C@H]1O (stereo partly drawn) | 41 µM | > 100 µM | 
1.2 µM |  |  |  |  |  |  | C[C@H]1[C@H](n2ccc(N)nc2=O)O[C@@](CO)(N=[N+]=[N-])[C@H]1O | > 98 µM | > 98 µM | AUC(0-inf) [9]: 2.87 µM·h; AUC(0-t) [10]: 2.66 µM·h; Tmax [11]: 2 h; AUC(0-inf) [12]: 4.98 µM·h; Papp [13]: 1.7 ×10⁻⁶ cm/s; microsomal CLint [14]: < 6 µL/min/mg; bioavailability [15]: 14%; Cmax [16]: 610 nM; microsomal CLint [17]: < 6 µL/min/mg; CL/F [18]: 119 mL/min/kg; AUC(0-t) [19]: 4.97 µM·h
6.6 µM | 12.9 µM·h | 4650 nM | 65% | 25.8 mL/min/kg | 12.7 µM·h | 1 h | CC(C)C(=O)OC[C@@]1(N=[N+]=[N-])O[C@@H](n2ccc(N)nc2=O)[C@H](C)[C@@H]1OC(=O)C(C)C | > 50 µM | > 100 µM | Papp [13]: 7.7 ×10⁻⁶ cm/s; microsomal CLint [14]: > 300 µL/min/mg
1.9 µM | 1.35 µM·h | 290 nM | 7% | 247 mL/min/kg | 1.22 µM·h | 1 h | CC(C)[C@H](N)C(=O)OC[C@@]1(N=[N+]=[N-])O[C@@H](n2ccc(N)nc2=O)[C@H](C)[C@@H]1OC(=O)[C@@H](N)C(C)C.O=C(O)C(F)(F)F |  | > 100 µM | 
